Laboratory results: paper PMC2737262 (Bioorganic & medicinal chemistry letters, 2009)

Columns and labels:
[1] = tested on: wild-type HIV-1 IIIB in MT-2 human T-cells; test: MTT colorimetric assay, survival of HIV-infected MT-2 cells; format: cell-based

Row | Compound | EC50 [1] | CC50 (MT-2 cells)
1 | enfuvirtide | 0.0375 µM | –
2 | CC[C@H](C)[C@@H](CC(=O)N[C@@H](CCC(=O)O)CC(=O)O)NC(=O)C[C@@H](NC(=O)C[C@H](CCCN)NC(=O)C[C@H](Cc1cccc(C(F)(F)F)c1)NC(=O)C[C@@H](NC(=O)C[C@H](CCC(=O)O)NC(=O)C[C@H](Cc1c[nH]c2ccccc12)NC(=O)C[C@@H](NC(=O)C[C@@H](N)CCCN)C(C)C)C(C)C)C(C)C [βWXI-a] | – | 150 ± 3.3 µM
3 | CC[C@H](C)[C@@H](CC(=O)N[C@@H](CCC(=O)O)CC(=O)O)NC(=O)C[C@@H](NC(=O)C[C@H](CCCN)NC(=O)C[C@H](Cc1cccnc1)NC(=O)C[C@@H](NC(=O)C[C@H](CCC(=O)O)NC(=O)C[C@H](Cc1c[nH]c2ccccc12)NC(=O)C[C@@H](NC(=O)C[C@@H](N)CCCN)C(C)C)C(C)C)C(C)C [βWXI-b] | – | > 250 µM
4 | CC[C@H](C)[C@@H](CC(=O)N[C@@H](CCC(=O)O)CC(=O)O)NC(=O)C[C@@H](NC(=O)C[C@H](CCCN)NC(=O)C[C@H](Cc1c[nH]c2ccccc12)NC(=O)C[C@@H](NC(=O)C[C@H](CCC(=O)O)NC(=O)C[C@H](Cc1c[nH]c2ccccc12)NC(=O)C[C@@H](NC(=O)C[C@@H](N)CCCN)C(C)C)C(C)C)C(C)C [βWWI-1] | – | 100 ± 19.6 µM
